For one test, the target named is DNMT1 (Homo sapiens, UniProt P26358). Briefly: DNMT1 biochemical activity, breaklight assay and/or SPA assay.
Test [1] deals with erythroid progenitor cells (EPCs). The experiment in a line: Fetal hemoglobin (HbF) ELISA in day 7 erythroid progenitor cells. The format is cell-based, human. Particulars: Homo sapiens, Erythroid progenitor cell, HbF ELISA, day 7 EPCs, 5 days; read-out: EPC ELISA (pEC50 category) (converted). Here is the method: Day 7 EPCs were cultured in duplicate plates with serially diluted Compound A for 5 days at 37° C. Wells were then analyzed for either induction of fetal hemoglobin (HbF,HbF ELISA) or cell growth (Cell Titer-Glo). In both cases, signal was normalized to vehicle-control treated cells.
Culture, Expansion, and Characterization of Day 7 Erythroid Progenitor Cells (EPC)s
All donors provided written informed consent for use of their samples, and the collection and use of the samples received institutional review board approval. All cryopreserved human bone marrow CD34+ cells used here were obtained from AlICells (Emeryville, Calif.) and were generally from different donors. The CD34+ cells were cultured to generate EPCs at day 7. Briefly, 1 million cells were cultured in 5% CO2, 5% O2 at 37° C. in H3000 Stemspan media (StemCell Technologies Vancouver, BC, Canada) supplemented with 2 mM L-glutamine, 40 μg/mL human low-density lipoproteins (StemCell Technologies), 10 ng/mL recombinant human (rh) interleukin IL-3 (R&D Systems, Minneapolis, Minn.), 100 ng/mL rh stem cell factor (R&D Systems), and 0.5 U/mL rh erythropoietin (Invitrogen, Grand Island, N.Y.). Cells were split and refed on day 4 with complete culture media described above and harvested on day 7 for evaluation of erythroid marker expression and assessment of γ-globin induction. Day 7 EPCs were then frozen in liquid nitrogen at 5 to 10 million cells/mL in 95% fetal bovine serum (FBS; Invitrogen) with 5% DMSO for subsequent use.
At the time of compound treatment, frozen day 7 EPCs prepared as described above were thawed, washed once and re-suspended in complete culture media as described above with the exception of an increase of rhEPO to 3 U/mL. Cells were counted and diluted to […] for plating into assay plates. Cells were then dispensed, at 30 μL per well with Multidrop™ Combi Reagent Dispenser (Thermo Scientific), into 384-well cell culture plates into which test compounds were pre-dispensed at 100 nL/well. Black Clear Bottom (Greiner Bio-One; 781090) and White (Greiner Bio-One; 781080) plates were used for ELISA and Cell Titer-Glo assays, respectively. The final cell density in the assays is 1,000 cells per well, with final compound concentrations between 33 nM (highest) and […] (lowest) for the 22-points serial dilution.
Fetal Hemoglobin (HbF) ELISA
Coating anti-HbF Ab (Bethyl Lab; cat. A80-136A) was diluted by 100-fold in the coating buffer (0.05 M carbonate-bicarbonate, pH 9.6), and then 20 μL/well was added to a 384-well MaxiSorp ELISA plate (Thermo Fisher; cat. 464718). After 1 hour incubation at room temperature, the plates were washed twice with ELISA washing buffer (50 mM Tris, 0.05% Tween 20, pH 8.0) with an EL406 plate washer (BioTek, Winooski, Vt.). Then, 40 μL/well of blocking buffer consisting of 50 mM Tris and 1% BSA (pH 8.0) was added to the plate and stored at 4° C. with cover sheet overnight, or until time of the assay. The coated ELISA plates were stable for up to 30 days at 4° C. On the day of assay, the plates were washed twice with ELISA washing buffer prior to addition of cell lysate.
After 5 days at 37° C. with 5% CO2 cell culture plates for ELISA assay were put into −80° C. freezer for a minimum of 2 hours. After thawing at room temperature, 30 μL of cell lysis buffer (Invitrogen; cat. FNN0011, supplemented with 1× protease inhibitor) was added to each well and the resulting cell lysate was mixed eight times with a Cybi-Well (Jena, Germany) pipettor. Following the mixing procedure, 20 μL/well of lysate was transferred to the coated ELISA plates described above followed by a 1 hour incubation at room temperature. The ELISA assay plates were washed three times with ELISA wash buffer. 20 μL per well of 1:75,000 to 100,000 diluted horseradish peroxidase (HRP) conjugate detection antiHbF Ab (Bethyl Labs; cat. A80-136P, diluted in 50 mM Tris [pH 8.0], 1% BSA, 0.05% Tween-20) was then added. […]

[2] abbreviates: binned activity in either the breaklight or the SPA assay.
[3] abbreviates: breaklight assay and/or SPA assay, repeated experimental runs, read-out: average pIC50 against DNMT1 (converted).
The mark [4] stands for this setting: binned activity in either the breaklight or the SPA assay, read-out: DNMT1 BioChemical (pIC50 category) (converted).
Setting [5] is: breaklight assay and/or SPA assay, repeated experimental runs.

Where “and” joins values, the source holds several entries; their conditions need not be identical. Identical values can stand only once. Counter-ions that a name gives are not always drawn. Like-named read-outs stand apart in the source and are kept apart here.

DNMT1, sequence (P26358 whole entry, looked up): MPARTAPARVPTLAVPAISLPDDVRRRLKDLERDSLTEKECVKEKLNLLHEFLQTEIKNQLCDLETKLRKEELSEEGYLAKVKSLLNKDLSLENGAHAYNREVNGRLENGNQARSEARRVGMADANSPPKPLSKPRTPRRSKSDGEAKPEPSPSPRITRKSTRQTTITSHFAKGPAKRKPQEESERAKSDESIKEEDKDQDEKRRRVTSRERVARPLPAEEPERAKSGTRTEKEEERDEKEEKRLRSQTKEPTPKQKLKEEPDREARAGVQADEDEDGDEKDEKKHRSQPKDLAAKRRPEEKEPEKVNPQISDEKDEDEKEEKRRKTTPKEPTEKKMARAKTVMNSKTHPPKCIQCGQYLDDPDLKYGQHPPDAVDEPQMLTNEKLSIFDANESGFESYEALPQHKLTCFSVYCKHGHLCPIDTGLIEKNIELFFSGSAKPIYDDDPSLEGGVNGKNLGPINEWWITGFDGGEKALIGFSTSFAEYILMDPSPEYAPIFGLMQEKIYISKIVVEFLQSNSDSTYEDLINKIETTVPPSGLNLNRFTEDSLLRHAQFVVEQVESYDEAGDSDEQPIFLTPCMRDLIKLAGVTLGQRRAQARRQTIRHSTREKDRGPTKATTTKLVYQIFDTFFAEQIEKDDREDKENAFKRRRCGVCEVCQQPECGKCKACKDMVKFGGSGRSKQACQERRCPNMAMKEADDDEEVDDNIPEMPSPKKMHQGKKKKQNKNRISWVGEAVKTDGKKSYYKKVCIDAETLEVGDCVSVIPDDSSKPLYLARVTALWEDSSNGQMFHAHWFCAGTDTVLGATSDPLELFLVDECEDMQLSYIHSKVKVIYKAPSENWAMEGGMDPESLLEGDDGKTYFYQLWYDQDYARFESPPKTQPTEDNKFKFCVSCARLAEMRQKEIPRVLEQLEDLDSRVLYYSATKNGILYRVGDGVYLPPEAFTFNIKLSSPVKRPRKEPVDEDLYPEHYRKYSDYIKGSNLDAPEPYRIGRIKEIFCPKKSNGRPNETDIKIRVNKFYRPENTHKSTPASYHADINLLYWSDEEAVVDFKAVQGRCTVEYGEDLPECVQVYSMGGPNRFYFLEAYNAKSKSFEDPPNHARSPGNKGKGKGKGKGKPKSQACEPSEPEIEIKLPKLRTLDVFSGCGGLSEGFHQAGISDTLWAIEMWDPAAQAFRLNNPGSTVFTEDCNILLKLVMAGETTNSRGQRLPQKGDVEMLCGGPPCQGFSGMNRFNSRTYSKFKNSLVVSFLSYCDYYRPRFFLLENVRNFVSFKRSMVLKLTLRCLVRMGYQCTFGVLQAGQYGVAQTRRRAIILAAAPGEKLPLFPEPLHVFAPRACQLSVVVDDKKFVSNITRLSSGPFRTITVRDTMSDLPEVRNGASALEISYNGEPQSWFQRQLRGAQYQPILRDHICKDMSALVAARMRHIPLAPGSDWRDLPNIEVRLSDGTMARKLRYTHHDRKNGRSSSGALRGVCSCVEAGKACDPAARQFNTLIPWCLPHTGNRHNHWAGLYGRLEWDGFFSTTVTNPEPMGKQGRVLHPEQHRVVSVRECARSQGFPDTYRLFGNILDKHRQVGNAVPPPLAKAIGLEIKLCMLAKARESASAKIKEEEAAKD

With `CCc1c(C#N)c(SC(C(N)=O)c2ccccc2)nc(N(C)CC(=O)NCC(C)(C)CO)c1C#N` (stereo not shown) [Example 685, 2-((6-((2-amino-2-oxo-1-phenylethyl)thio)-3,5-dicyano-4-ethylpyridin-2-yl)(methyl)amino)-N-(3-hydroxy-2,2-dimethylpropyl)acetamide], at DNMT1 (setting [2]), the “DNMT1 BioChemical (pIC50 category)” value is “D (Category D: ≥6.5)”. Also, on DNMT1 (setting [3]), the IC50 was 316 to 1000 nM and 316 nM. Moreover, the EC50 in test [1] is 316 to 1000 nM.
In the case of `CCc1c(C#N)c(SCc2ccc(CNC3CCNC3=O)cc2)nc(N2CCCN(C)CC2)c1C#N` (stereo not shown) [Example 385, 4-Ethyl-2-(4-methyl-1,4-diazepan-1-yl)-6-((4-(((2-oxopyrrolidin-3-yl)amino)methyl)benzyl)thio)pyridine-3,5-dicarbonitrile], the IC50 at DNMT1 (setting [4]) is 316 to 1000 nM. Besides, the EC50 in test [1] was above 31600 nM.
`CCc1c(C#N)c(SC(C(N)=O)c2ccc(OC)cn2)nc(N2CCCN(C)CC2)c1C#N` (stereo not shown) [Example 221, 2-((3,5-Dicyano-4-ethyl-6-(4-methyl-1,4-diazepan-1-yl)pyridin-2-yl)thio)-2-(5-methoxypyridin-2-yl)acetamide]: the IC50 at DNMT1 (setting [4]) is 316 to 1000 nM. In addition, the EC50 in test [1] is below 316 nM.
The like results for `CCc1c(Cl)c(SC(C(N)=O)c2ccccc2)nc(N2CCCN(CCO)CC2)c1Cl` (stereo not shown) [Example 203, 2-((3,5-Dichloro-4-ethyl-6-(4-(2-hydroxyethyl)-1,4-diazepan-1-yl)pyridin-2-yl)thio)-2-phenylacetamide] were, in that order, 316 to 1000 nM and above 31600 nM.
`CCc1c(C#N)c(SC(C(N)=O)c2ccccc2)nc(N2CCC(N3CCC[C@H]3C)CC2)c1C#N` (stereo partly drawn) [Example 451, 2-((3,5-dicyano-4-ethyl-6-(4-((R)-2-methylpyrrolidin-1-yl)piperidin-1-yl)pyridin-2-yl)thio)-2-phenylacetamide]: the “DNMT1 BioChemical (pIC50 category)” value on DNMT1 (setting [2]) was “D (Category D: ≥6.5)”. Besides, the EC50 in test [1] was below 316 nM.
On to `CCc1c(C#N)c(S[C@@H](C(N)=O)c2ccccc2)nc(N(C)CC(N)=O)c1C#N` (single isomer, unassigned) [Example 413, 2-((6-((2-amino-2-oxoethyl)(methyl)amino)-3,5-dicyano-4-ethylpyridin-2-yl)thio)-2-phenylacetamide], for which, on DNMT1 (setting [4]), the IC50 was below 316 nM. The EC50 in test [1] is below 316 nM.
As for `N#Cc1c(SC(C(N)=O)c2ccccc2)nc(N2CCNC(=O)CC2)c(C#N)c1C1CC1` (stereo not shown) [Example 110, 2-{[3,5-Dicyano-4-cyclopropyl-6-(5-oxo-1,4-diazepan-1-yl)pyridin-2-yl]sulfanyl}-2-phenylacetamide], the IC50 on DNMT1 (setting [4]) and on DNMT1 (setting [3]) was 316 to 1000 nM in each case. Moreover, in test [1], the EC50 was 1000 to 31600 nM.
On to `COc1c(C#N)c(SC(C(N)=O)c2ccccc2)nc(N(C)C)c1C#N` (stereo not shown) [Example 191, 2-((3,5-Dicyano-6-(dimethylamino)-4-methoxypyridin-2-yl)thio)-2-phenylacetamide], for which the “DNMT1 BioChemical (pIC50 category)” value on DNMT1 (setting [2]) was “D (Category D: ≥6.5)”. Moreover, the EC50 in test [1] was 316 to 1000 nM.
For `CCc1c(C#N)c(SC(C(N)=O)c2ccccc2)nc(N(C)CC(=O)N2C[C@@H](CO)[C@H](O)C2)c1C#N` (stereo partly shown) [Example 649], the “DNMT1 BioChemical (pIC50 category)” value on DNMT1 (setting [2]) is on record as “D (Category D: ≥6.5)”. Moreover, the “average pIC50 against DNMT1” value on DNMT1 (setting [5]) is reported as above 6.5. Further, the IC50 at DNMT1 (setting [3]) was 126 nM. In addition, the EC50 in test [1] is 1000 to 31600 nM.
With `CCc1c(C#N)c(SCc2ccc(C(=O)NCCO)cc2)nc(N(C)C)c1C#N` [Example 292, 4-(((3,5-Dicyano-6-(dimethylamino)-4-ethylpyridin-2-yl)thio)methyl)-N-(2-hydroxyethyl)benzamide], the IC50 at DNMT1 (setting [4]) was 316 to 1000 nM. Moreover, the EC50 in test [1] was 1000 to 31600 nM.
On to `CCc1c(C#N)c(SCc2ccc(CNC(C)=O)cc2)nc(N2CCC(N)CC2)c1C#N` [Example 156, N-(4-(((6-(4-Aminopiperidin-1-yl)-3,5-dicyano-4-ethylpyridin-2-yl)thio)methyl)benzyl)acetamide, Trifluoroacetic Acid Salt], for which the “DNMT1 BioChemical (pIC50 category)” value on DNMT1 (setting [2]) was “D (Category D: ≥6.5)”. In addition, in test [1], the EC50 is 316 to 1000 nM.
The matching figures for `CCc1c(C#N)c(SCc2ccc(N(C)S(C)(=O)=O)cc2)nc(N2CCC(NC(=O)[C@H](C)N)CC2)c1C#N` [Example 585, (S)-2-amino-N-(1-(3,5-dicyano-4-ethyl-6-((4-(N-methylmethylsulfonamido)benzyl)thio)pyridin-2-yl)piperidin-4-yl)propanamide]: “D (Category D: ≥6.5)” and below 316 nM.
With `CCc1c(C#N)c(SC(C(N)=O)c2ccccc2)nc(N2CCC(NC(=O)C(C)(C)N)CC2)c1C#N` (stereo not shown) [Example 148], the “DNMT1 BioChemical (pIC50 category)” value at DNMT1 (setting [2]) is “D (Category D: ≥6.5)”. Moreover, the “average pIC50 against DNMT1” value on DNMT1 (setting [5]) was above 6.5. In test [1], the EC50 is below 316 nM.
As for `CCc1c(C#N)c(SC(C(N)=O)c2ccccc2)nc(N(C)CC(=O)NO)c1C#N` (stereo not shown) [Example 679, 2-((6-((2-amino-2-oxo-1-phenylethyl)thio)-3,5-dicyano-4-ethylpyridin-2-yl)(methyl)amino)-N-hydroxyacetamide], the “DNMT1 BioChemical (pIC50 category)” value on DNMT1 (setting [2]) is listed as “D (Category D: ≥6.5)”. Moreover, the EC50 in test [1] is 316 to 1000 nM.
Consider `CCc1c(C#N)c(SC(C(N)=O)c2ccccc2)nc(N2CCC(NC(=O)OC(C)(C)C)C(F)(F)C2)c1C#N` (stereo not shown) [Example 383, tert-Butyl (1-(6-((2-amino-2-oxo-1-phenylethyl)thio)-3,5-dicyano-4-ethylpyridin-2-yl)-3,3-difluoropiperidin-4-yl) carbamate], for which the “DNMT1 BioChemical (pIC50 category)” value on DNMT1 (setting [2]) is “D (Category D: ≥6.5)”. Also, in test [1], the EC50 is 316 to 1000 nM.
Consider `CCc1c(C#N)c(SCc2ccc(N(C)S(C)(=O)=O)cc2)nc(N2CCC(NC(C)C)CC2)c1C#N` [Example 556, N-(4-(((3,5-dicyano-4-ethyl-6-(4-(isopropylamino)piperidin-1-yl)pyridin-2-yl)thio)methyl)phenyl)-N-methylmethanesulfonamide], for which, at DNMT1 (setting [2]), the “DNMT1 BioChemical (pIC50 category)” value is “D (Category D: ≥6.5)”. Besides, the EC50 in test [1] is below 316 nM.
Consider `CCc1c(C#N)c(SCc2ccc(N(C)S(C)(=O)=O)cc2)nc(N2CCC(NC(=O)C(C)(C)N)CC2)c1C#N` [Example 572, 2-amino-N-(1-(3,5-dicyano-4-ethyl-6-((4-(N-methylmethylsulfonamido)benzyl)thio)pyridin-2-yl)piperidin-4-yl)-2-methylpropanamide], for which, at DNMT1 (setting [2]), the “DNMT1 BioChemical (pIC50 category)” value is recorded as “D (Category D: ≥6.5)”. Also, the EC50 in test [1] is below 316 nM.
Consider `CCc1c(C#N)c(SCc2ccc(CNC(C)=O)cc2)nc(N2CCC(OC(=O)[C@@H](N)C(C)C)CC2)c1C#N` [Example 289, (S)-1-(6-((4-(Acetamidomethyl)benzyl)thio)-3,5-dicyano-4-ethylpyridin-2-yl)piperidin-4-yl 2-amino-3-methylbutanoate], for which the IC50 at DNMT1 (setting [4]) is 316 to 1000 nM. The EC50 in test [1] was 1000 to 31600 nM.
As for `CCc1c(C#N)c(SC(C(N)=O)c2ccccc2)nc(N2CCN(Cc3ccoc3)CC2)c1C#N` (stereo not shown) [Example 200, 2-((3,5-Dicyano-4-ethyl-6-(4-(furan-3-ylmethyl)piperazin-1-yl)pyridin-2-yl)thio)-2-phenylacetamide], the IC50 at DNMT1 (setting [4]) was 316 to 1000 nM. For the same compound, the EC50 in test [1] was 1000 to 31600 nM.

The values above are taken from US10975056B2 (GlaxoSmithKline Intellectual Property Development Limited, priority 2016, dated 2021).
